Data on 22 compounds can be found in patent US9562036B2, “Fluoromethyl-substituted pyrrole carboxamides as CaV2.2 calcium channel blockers” (GRÜNENTHAL GMBH, priority 2013, dated 2017).

Molecules are shown by their SMILES. A value given as a limit tells only on which side of the number the result lay.

T1 sequence (Q00975 whole entry): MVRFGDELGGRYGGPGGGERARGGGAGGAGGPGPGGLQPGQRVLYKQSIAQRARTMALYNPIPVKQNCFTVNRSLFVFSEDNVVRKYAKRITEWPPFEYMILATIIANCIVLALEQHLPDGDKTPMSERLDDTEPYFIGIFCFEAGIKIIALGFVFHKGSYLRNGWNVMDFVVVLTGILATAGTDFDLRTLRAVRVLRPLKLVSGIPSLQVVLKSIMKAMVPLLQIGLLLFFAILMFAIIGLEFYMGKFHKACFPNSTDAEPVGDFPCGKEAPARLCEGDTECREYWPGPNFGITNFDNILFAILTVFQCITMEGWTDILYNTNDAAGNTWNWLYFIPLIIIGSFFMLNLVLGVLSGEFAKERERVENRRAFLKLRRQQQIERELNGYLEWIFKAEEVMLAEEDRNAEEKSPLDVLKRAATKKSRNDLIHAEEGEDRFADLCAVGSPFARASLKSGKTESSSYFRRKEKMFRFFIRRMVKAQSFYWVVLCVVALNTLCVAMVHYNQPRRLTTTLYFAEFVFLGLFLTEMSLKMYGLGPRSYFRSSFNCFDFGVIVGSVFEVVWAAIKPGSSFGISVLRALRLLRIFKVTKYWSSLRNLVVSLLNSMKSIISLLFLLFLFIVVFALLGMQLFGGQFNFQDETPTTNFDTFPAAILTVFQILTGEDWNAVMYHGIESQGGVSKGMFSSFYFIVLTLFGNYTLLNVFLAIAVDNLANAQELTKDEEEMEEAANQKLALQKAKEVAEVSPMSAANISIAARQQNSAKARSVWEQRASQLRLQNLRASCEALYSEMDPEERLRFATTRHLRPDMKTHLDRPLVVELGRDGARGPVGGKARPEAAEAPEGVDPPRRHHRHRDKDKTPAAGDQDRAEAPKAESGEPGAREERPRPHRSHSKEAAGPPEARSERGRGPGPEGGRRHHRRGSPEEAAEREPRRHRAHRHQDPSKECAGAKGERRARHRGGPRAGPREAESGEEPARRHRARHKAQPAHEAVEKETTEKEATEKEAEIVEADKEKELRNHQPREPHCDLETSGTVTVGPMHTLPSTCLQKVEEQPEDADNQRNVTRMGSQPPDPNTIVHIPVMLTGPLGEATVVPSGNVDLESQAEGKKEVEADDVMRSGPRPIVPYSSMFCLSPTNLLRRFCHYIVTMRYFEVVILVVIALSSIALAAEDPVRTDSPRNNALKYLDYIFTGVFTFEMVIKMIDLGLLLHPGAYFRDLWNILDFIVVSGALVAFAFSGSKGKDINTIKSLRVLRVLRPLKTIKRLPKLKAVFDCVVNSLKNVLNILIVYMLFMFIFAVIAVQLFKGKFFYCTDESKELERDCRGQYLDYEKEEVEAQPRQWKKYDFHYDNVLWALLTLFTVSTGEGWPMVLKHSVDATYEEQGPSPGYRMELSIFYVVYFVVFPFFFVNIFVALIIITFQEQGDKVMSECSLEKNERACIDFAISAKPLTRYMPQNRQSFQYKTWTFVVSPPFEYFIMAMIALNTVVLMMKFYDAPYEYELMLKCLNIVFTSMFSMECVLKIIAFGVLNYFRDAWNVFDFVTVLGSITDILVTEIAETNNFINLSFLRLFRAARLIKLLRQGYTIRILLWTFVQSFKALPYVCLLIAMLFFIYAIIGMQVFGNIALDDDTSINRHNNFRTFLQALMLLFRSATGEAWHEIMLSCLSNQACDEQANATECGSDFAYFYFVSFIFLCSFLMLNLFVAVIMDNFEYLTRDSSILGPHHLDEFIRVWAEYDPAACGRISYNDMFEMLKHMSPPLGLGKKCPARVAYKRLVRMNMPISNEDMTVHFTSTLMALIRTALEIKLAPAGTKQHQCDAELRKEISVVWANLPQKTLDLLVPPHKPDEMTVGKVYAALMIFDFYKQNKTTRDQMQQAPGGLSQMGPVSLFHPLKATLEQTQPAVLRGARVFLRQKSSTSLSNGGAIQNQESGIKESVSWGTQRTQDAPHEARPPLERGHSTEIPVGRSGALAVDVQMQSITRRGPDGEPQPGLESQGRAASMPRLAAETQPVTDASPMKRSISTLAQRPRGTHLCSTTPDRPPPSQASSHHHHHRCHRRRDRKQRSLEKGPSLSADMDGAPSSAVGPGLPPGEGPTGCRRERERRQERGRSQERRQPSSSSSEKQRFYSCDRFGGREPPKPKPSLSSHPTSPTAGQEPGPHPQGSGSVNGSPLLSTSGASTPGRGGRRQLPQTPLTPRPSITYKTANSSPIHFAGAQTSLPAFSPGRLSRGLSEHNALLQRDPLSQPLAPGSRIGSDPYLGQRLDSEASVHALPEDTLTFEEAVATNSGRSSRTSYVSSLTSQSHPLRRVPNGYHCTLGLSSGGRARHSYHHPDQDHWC

This test addresses T1, Human CaV2.2 channels (Homo sapiens, UniProt Q00975).
T1 construct: expressed in transfected cells; also stably expressing Kir2.3)
Put plainly: Fluorescent assay for CaV2.2 channels using potassium depolarization to induce channel opening (FLIPR, Fluo 4). The format is cell-based. The following applies: 3 μM test compound; 30 mM KCl alternative assay buffer (inactivated channel state); HEK293 cells; read-out: %-Inhib (CaV2.2) @3 μM @30 mM KCl. From the text:
In the process, the Ca^2+ influx is quantified in the FLIPR assay with the aid of a Ca^2+-sensitive dye (type Fluo-4, Molecular Probes Europe BV, Leiden, the Netherlands) in a fluorescent imaging plate reader (FLIPR 3, Molecular Devices, Sunnyvale, USA), as described hereinafter.
2. Assay Descriptions and Biological Data: 2.1 Fluorescent Assay for CaV2.2 Channels Using Potassium Depolarization to Induce Channel Opening
Human CaV2.2 channels were stably expressed in HEK293 cells together with alpha2-delta and beta subunits of voltage gated calcium channels. In addition, an inwardly rectifying potassium channel (Kir2.3) was stably expressed in these cells to augment control of the cell membrane potential by the concentration of extracellular potassium ions. Raise of the extracellular potassium concentration leads to depolarization of the membrane potential and thus regulates the voltage dependent state of CaV2.2 channels. For preparation, cells were seeded in black poly-D-lysine coated 96-well plates (Becton Dickinson, Biocoat 4640) in 100 μL medium [500 mL DMEM/F-12 plus Glutamax (Invitrogen 31331-093) plus 5.5 mL MEM NEAA 100× (Invitrogen 11140-035) plus 50 mL FBS decomplemented (Invitrogen 10270-106) plus 200 μg/mL Geneticin (Invitrogen 10131-027) plus 50 μg/mL Hygromycin B (Invitrogen 10687-010) plus 2 μg/mL Blasticidin (anti-bl5b Invivo-Gen) plus 0.2 μg/mL Puromycin (A 11138-03)] at a cell density of 30.000 cells per well. Plates were incubated at 37° C. (5% CO2) for 20 to 23 h. On the day of experiment medium was discarded and cells were loaded with Fluo 4 by addition of 100 μL of basic assay buffer (10 mM HEPES, 1 mM KCl, 149 mM NaCl, 0.8 mM CaC2, 1.7 mM MgCl2, 10 mM Glucose, 0.1% BSA. pH 7.4) containing 2 μM Fluo 4 (Molecular Probes; F-14201), 0.01% pluronic acid (Molecular Probes; P-6866) and 2.5 mM probenecid (Molecular Probes; P36400). Cells were incubated in the dark at 25° C. for 60 min. Then dye containing buffer was discarded and 100 μL basic (1 mM KCl) or alternative (30 mM KCl) assay buffer was added. The alternative assay buffer contained altered concentrations of KCl (30 mM) and NaCl (120 mM) and was used in order to promote the inactivated channel state. After that 25 μL of basic or alternative assay buffer with or without test compound were added and cells were incubated again in the dark at 25° C. for 15 min. Fluorescence intensity was measured on a FLIPR 3 instrument (Molecular Devices Corp., Sunnyvale, Calif.) with excitation at 480 nm and emission at 535 nm. After continuously reading fluorescence for 30 sec, 50 μL of basic assay buffer containing 210 mM KCl (NaCl omitted) were added for depolarization. Peak fluorescent signal intensity was determined and the amplitude of the peak signal, normalized to base line, was used to measure channel inhibition by test compounds.
As for `Cc1c(-c2ncc(C3CC3)cn2)c(C(=O)N(C)C(C)C)n(Cc2ccccc2)c1C(F)(F)F` [Example 56, 1-Benzyl-3-(5-cyclopropyl-pyrimidin-2-yl)-N-isopropyl-N,4-dimethyl-5-(trifluoromethyl)-1H-pyrrole-2-carboxylic acid amide], the inhibition at 3 µM is more than 95%. For the compound `Cc1c(-c2cnn(C)c2)c(C(=O)N2CCOCC2)n(Cc2ccccc2)c1C(F)(F)F` [Example 08, (1-Benzyl-4-methyl-3-(1-methyl-1H-pyrazol-4-yl)-5-(trifluoromethyl)-1H-pyrrol-2-yl)(morpholino)methanone], the inhibition at 3 µM lay within 40 to 75%. In the case of `Cc1c(-c2ccc(Cl)cn2)c(C(=O)N(C)CC(C)(C)C)n(Cc2ccccc2)c1C(F)(F)F` [Example 41, 1-Benzyl-3-(5-chloro-pyridin-2-yl)-N-(2,2-dimethyl-propyl)-N,4-dimethyl-5-(trifluoromethyl)-1H-pyrrole-2-carboxylic acid amide], the inhibition at 3 µM was more than 95%. Turning to `Cc1c(-c2ncc(Cl)cn2)c(C(=O)N2CCOCC2)n(Cc2ccccc2)c1C(F)(F)F` [Example 25, [1-Benzyl-3-(5-chloro-pyrimidin-2-yl)-4-methyl-5-(trifluoromethyl)-1H-pyrrol-2-yl]-morpholin-4-yl-methanone], the inhibition at 3 µM is more than 95%. On to `COc1ccc(-c2c(C)c(C(F)(F)F)n(Cc3ccccc3)c2C(=O)N(C)CC(C)(C)C)cn1` [Example 02, 1-Benzyl-3-(6-methoxypyridin-3-yl)-N,4-dimethyl-N-neopentyl-5-(trifluoromethyl)-1H-pyrrole-2-carboxamide], for which the inhibition at 3 µM lay in the range of 40 to 75%. The result for `Cc1c(-c2ccn(C)n2)c(C(=O)N(C)C(C)C)n(Cc2ccccc2)c1C(F)(F)F` [Example 51, 1-Benzyl-N-isopropyl-N,4-dimethyl-3-(1-methyl-1H-pyrazol-3-yl)-5-(trifluoromethyl)-1H-pyrrole-2-carboxylic acid amide] reads 75 to 95%. As for `Cc1c(-c2cnccn2)c(C(=O)N2CCOCC2)n(Cc2ccccc2)c1C(F)(F)F` [Example 39, (1-Benzyl-4-methyl-3-(pyrazin-2-yl)-5-(trifluoromethyl)-1H-pyrrol-2-yl)(morpholino)methanone], the inhibition at 3 µM lay in the range of 40 to 75%. With `Cc1c(-c2ncc(Cl)cn2)c(C(=O)N2CCS(=O)(=O)CC2)n(Cc2ccccc2)c1C(F)(F)F` [Example 44, [1-Benzyl-3-(5-chloro-pyrimidin-2-yl)-4-methyl-5-(trifluoromethyl)-1H-pyrrol-2-yl]-(1,1-dioxo-[1,4]thiazinan-4-yl)-methanone] the figure was 75 to 95%; with `Cc1c(-c2ncc(F)cn2)c(C(=O)N2CCOCC2)n(Cc2ccccc2)c1C(F)(F)F` [Example 38, (1-Benzyl-3-(5-fluoropyrimidin-2-yl)-4-methyl-5-(trifluoromethyl)-1H-pyrrol-2-yl)(morpholino)methanone], 40 to 75%. For the compound `Cc1c(-c2ncc(Cl)cn2)c(C(=O)N(C)C(C)C)n(Cc2ccccc2)c1C(F)(F)F` [Example 54, 1-Benzyl-3-(5-chloro-pyrimidin-2-yl)-N-isopropyl-N,4-dimethyl-5-(trifluoromethyl)-1H-pyrrole-2-carboxylic acid amide], the inhibition at 3 µM is more than 95%. On to `COc1cnc(-c2c(C)c(C(F)(F)F)n(Cc3ccccc3)c2C(=O)N2CCOCC2)cn1` [Example 05, (1-Benzyl-3-(5-methoxypyrazin-2-yl)-4-methyl-5-(trifluoromethyl)-1H-pyrrol-2-yl)(morpholino)methanone], for which the inhibition at 3 µM lay in the range of 40 to 75%. As for `Cc1c(-c2ncc(Cl)cn2)c(C(=O)N(C)CC(C)(C)C#N)n(Cc2ccccc2)c1C(F)(F)F` [Example 49, 1-Benzyl-3-(5-chloro-pyrimidin-2-yl)-N-(2-cyano-2-methyl-propyl)-N,4-dimethyl-5-(trifluoromethyl)-1H-pyrrole-2-carboxylic acid amide], the inhibition at 3 µM was more than 95%.

On to `Cc1c(-c2cncnc2)c(C(=O)N2CCOCC2)n(Cc2ccccc2)c1C(F)(F)F` [Example 15, [1-Benzyl-4-methyl-3-pyrimidin-5-yl-5-(trifluoromethyl)-1H-pyrrol-2-yl]-morpholin-4-yl-methanone], for which the inhibition at 3 µM lay in the range of 40 to 75%. With `Cc1c(-c2cnccn2)c(C(=O)N(C)CC(C)(C)C)n(Cc2ccccc2)c1C(F)(F)F` [Example 34, 1-Benzyl-N,4-dimethyl-N-neopentyl-3-(pyrazin-2-yl)-5-(trifluoromethyl)-1H-pyrrole-2-carboxamide] the figure was 75 to 95%; with `Cc1c(-c2ncc(Cl)cn2)c(C(=O)NC2CC2)n(Cc2ccccc2)c1C(F)(F)F` [Example 46, 1-Benzyl-3-(5-chloro-pyrimidin-2-yl)-N-cyclopropyl-4-methyl-5-(trifluoromethyl)-1H-pyrrole-2-carboxylic acid amide], 40 to 75%; with `Cc1c(-c2ncc(F)cn2)c(C(=O)N(C)CC(C)(C)C)n(Cc2ccccc2)c1C(F)(F)F` [Example 33, 1-Benzyl-3-(5-fluoropyrimidin-2-yl)-N,4-dimethyl-N-neopentyl-5-(trifluoromethyl)-1H-pyrrole-2-carboxamide], more than 95%. With `Cc1c(-c2ccc(Cl)cn2)c(C(=O)N2CCOCC2)n(Cc2ccccc2)c1C(F)(F)F` [Example 42, [1-Benzyl-3-(5-chloro-pyridin-2-yl)-4-methyl-5-(trifluoromethyl)-1H-pyrrol-2-yl]-morpholin-4-yl-methanone], the inhibition at 3 µM is more than 95%.

In the case of `Cc1c(-c2ccc(Cl)nn2)c(C(=O)N2CCOCC2)n(Cc2ccccc2)c1C(F)(F)F` [Example 29, [1-Benzyl-3-(6-chloro-pyridazin-3-yl)-4-methyl-5-(trifluoromethyl)-1H-pyrrol-2-yl]-morpholin-4-yl-methanone], the inhibition at 3 µM fell in the range of 40 to 75%. For the compound `Cc1c(-c2ccc(Cl)cn2)c(C(=O)N(C)C(C)C)n(Cc2ccccc2)c1C(F)(F)F` [Example 50, 1-Benzyl-3-(5-chloro-pyridin-2-yl)-N-isopropyl-N,4-dimethyl-5-(trifluoromethyl)-1H-pyrrole-2-carboxylic acid amide], the inhibition at 3 µM was more than 95%.

Take `Cc1c(-c2ncc(Cl)cn2)c(C(=O)NC(C)C)n(Cc2ccccc2)c1C(F)(F)F` [Example 52, 1-Benzyl-3-(5-chloro-pyrimidin-2-yl)-N-isopropyl-4-methyl-5-(trifluoromethyl)-1H-pyrrole-2-carboxylic acid amide]: the inhibition at 3 µM is 40 to 75%. Take `COc1cnc(-c2c(C)c(C(F)(F)F)n(Cc3ccccc3)c2C(=O)N(C)CC(C)(C)C)nc1` [Example 30, 1-Benzyl-3-(5-methoxypyrimidin-2-yl)-N,4-dimethyl-N-neopentyl-5-(trifluoromethyl)-1H-pyrrole-2-carboxamide]: the inhibition at 3 µM lay in the range of 75 to 95%. As for `Cc1noc(C)c1-c1c(C)c(C(F)(F)F)n(Cc2ccccc2)c1C(=O)N1CCOCC1` [Example 23, [1-Benzyl-3-(3,5-dimethyl-isoxazol-4-yl)-4-methyl-5-(trifluoromethyl)-1H-pyrrol-2-yl]-morpholin-4-yl-methanone], the inhibition at 3 µM was in the range of 75 to 95%.
